According to article PMC3132063 (2011):

Biological target: Janus kinase 2 (JAK2) (Homo sapiens, UniProt O60674)
Sequence (O60674 whole entry): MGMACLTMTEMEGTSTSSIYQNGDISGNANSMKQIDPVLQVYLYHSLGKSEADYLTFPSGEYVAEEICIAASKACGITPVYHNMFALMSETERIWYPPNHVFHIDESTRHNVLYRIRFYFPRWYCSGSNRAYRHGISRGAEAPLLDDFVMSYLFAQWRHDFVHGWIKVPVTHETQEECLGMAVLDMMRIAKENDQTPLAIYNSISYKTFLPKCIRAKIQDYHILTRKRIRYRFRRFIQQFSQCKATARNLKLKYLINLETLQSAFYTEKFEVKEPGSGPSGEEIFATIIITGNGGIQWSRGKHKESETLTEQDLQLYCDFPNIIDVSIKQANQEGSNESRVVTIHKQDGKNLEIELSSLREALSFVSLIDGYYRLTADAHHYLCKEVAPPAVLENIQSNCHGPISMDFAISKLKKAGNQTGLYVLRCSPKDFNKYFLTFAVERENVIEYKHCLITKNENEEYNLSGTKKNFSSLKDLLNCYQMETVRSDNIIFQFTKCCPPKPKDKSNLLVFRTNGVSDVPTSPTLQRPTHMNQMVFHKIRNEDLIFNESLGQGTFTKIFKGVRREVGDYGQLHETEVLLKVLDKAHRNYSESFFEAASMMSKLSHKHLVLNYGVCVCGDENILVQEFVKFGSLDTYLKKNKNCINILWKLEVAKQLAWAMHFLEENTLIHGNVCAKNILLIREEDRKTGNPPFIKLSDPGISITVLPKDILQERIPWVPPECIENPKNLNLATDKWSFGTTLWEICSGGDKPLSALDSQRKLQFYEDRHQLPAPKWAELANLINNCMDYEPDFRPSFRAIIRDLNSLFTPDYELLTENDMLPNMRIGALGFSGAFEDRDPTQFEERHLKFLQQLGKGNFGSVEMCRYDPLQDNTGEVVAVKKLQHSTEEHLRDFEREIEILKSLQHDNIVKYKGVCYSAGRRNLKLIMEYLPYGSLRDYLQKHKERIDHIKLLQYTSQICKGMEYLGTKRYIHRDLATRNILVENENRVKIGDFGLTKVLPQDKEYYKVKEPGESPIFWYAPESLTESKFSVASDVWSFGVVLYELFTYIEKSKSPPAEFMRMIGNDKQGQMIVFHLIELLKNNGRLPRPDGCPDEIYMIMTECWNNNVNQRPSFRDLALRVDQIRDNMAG

IC50: 1.8 ± 0.6 nM
Structure (SMILES): CN1CCN(c2cccc(Nc3nc4c(-c5ccc(S(C)(=O)=O)cc5)cccn4n3)c2)CC1 [CEP-33779]
